Test results published in US20230312550A1, “N-(2-(4-CYANOTHIAZOLIDIN-3-YL)-2-OXOETHYL)-QUINOLINE-4-CARBOXAMIDES” (AstraZeneca AB, priority 2020, published 2023).
≈ marks a conversion by molar mass, not a printed value.

Assays:
FAP = FAP (Homo sapiens (Human), UniProt Q12884); assay: hFAP inhibition assay; assay type: biochemical; conditions: hFAP […], Ala-Pro-AMC 20 μM; n = 1 or geometric mean n = 2-3
Protocol: 384 low volume black plates (Greiner #784076) were used. 4 μL, 0.48 nM enzyme solution (100 mM Tris HCl, 100 mM NaCl, 0.05% Chaps, pH 7.4) was added to 40 nL compounds (in DMSO) at 10 CR, 3 fold dilution series from 50 μM FAC. Plates were incubated for 15 min at rt in dark. 4 μL, 40 μM substrate solution (100 mM Tris HCl, 100 mM NaCl, 0.05% Chaps, pH 7.4) was added to each well. Plates were centrifuged at 1000 rpm and incubated for 30 min at rt in dark. The plates were read on a PHERAstar® reader with excitation 340 nm and emission 460 nm. Data were analyzed in Genedata Screener®. IC50 values were determined by plotting % inhibition versus log compound concentration and using a one site dose response model.

[1] = target: human Fibroblast activation protein alpha (hFAP) (Homo sapiens (Human), UniProt Q12884); assay: hFAP inhibition assay (tight binders); assay type: biochemical; conditions: Ala-Pro-AMC 20 μM, n = 1 or geometric mean n = 2-6; also: hFAP 2.4 pM
Chain of human Fibroblast activation protein alpha (hFAP) (Q12884 38-760): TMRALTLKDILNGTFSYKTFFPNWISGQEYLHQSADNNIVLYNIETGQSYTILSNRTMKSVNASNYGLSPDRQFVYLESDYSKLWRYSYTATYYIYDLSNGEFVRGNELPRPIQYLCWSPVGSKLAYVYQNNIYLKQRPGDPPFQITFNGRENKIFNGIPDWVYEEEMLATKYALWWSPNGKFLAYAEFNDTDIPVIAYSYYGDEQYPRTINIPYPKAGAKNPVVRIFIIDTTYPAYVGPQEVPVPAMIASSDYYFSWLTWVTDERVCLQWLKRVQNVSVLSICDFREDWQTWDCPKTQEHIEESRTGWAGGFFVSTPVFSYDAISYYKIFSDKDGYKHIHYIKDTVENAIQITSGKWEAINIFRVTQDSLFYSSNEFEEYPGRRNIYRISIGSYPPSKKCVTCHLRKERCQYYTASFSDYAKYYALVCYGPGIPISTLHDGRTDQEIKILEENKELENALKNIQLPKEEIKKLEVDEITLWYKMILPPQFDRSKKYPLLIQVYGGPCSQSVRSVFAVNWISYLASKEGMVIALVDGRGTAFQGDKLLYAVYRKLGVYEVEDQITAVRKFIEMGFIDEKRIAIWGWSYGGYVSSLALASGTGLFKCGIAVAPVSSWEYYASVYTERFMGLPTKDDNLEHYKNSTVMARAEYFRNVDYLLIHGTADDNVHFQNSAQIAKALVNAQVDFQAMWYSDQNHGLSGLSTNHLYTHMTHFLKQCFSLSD
Protocol: The plates were read on a PHERAstar® reader with excitation 340 nm and emission 460 nm. Data were analyzed in Genedata Screener®. IC50 values were determined by plotting % inhibition versus log compound concentration and using a one site dose response model.

hFAP (M39-A757) = hFAP (M39-A757) (Homo sapiens (Human), UniProt Q12884); assay: hFAP binding assay (surface plasmon resonance); conditions: SPR, 20° C.; for hFAP Binding assay k(off) / hFAP Binding assay k(on): single cycle kinetics; for Kd: n = 1 or geometric mean n = 2-4
Chain of hFAP (M39-A757) (Q12884 39-757): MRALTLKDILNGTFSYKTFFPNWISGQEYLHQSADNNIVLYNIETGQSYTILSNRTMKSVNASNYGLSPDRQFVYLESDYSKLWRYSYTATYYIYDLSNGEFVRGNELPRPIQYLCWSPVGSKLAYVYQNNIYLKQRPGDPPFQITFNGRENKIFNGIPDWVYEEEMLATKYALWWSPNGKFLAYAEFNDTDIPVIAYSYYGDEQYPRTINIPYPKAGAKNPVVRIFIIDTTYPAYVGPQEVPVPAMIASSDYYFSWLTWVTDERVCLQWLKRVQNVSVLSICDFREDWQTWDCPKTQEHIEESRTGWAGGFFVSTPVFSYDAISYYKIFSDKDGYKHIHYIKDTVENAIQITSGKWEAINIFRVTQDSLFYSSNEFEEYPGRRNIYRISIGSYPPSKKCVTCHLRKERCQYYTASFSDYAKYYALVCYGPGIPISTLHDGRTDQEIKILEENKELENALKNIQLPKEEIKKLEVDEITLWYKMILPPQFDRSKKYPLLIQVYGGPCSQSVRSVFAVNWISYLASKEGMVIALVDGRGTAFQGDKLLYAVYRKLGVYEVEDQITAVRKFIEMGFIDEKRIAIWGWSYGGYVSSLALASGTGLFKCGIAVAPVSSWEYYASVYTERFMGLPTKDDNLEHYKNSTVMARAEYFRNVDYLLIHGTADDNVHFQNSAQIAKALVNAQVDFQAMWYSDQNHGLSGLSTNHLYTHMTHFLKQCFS

[2] = target: Prolyl endopeptidase, Prolyl Oligopeptidase (hPREP) (Homo sapiens (Human), UniProt P48147); assay: hPrep inhibition assay; assay type: biochemical; conditions: hPREP 0.6 nM, Z-Gly-Pro-amino-methylcoumarin 50 μM; read-out: PREP IC50
Chain of Prolyl endopeptidase, Prolyl Oligopeptidase (hPREP) (P48147 whole entry): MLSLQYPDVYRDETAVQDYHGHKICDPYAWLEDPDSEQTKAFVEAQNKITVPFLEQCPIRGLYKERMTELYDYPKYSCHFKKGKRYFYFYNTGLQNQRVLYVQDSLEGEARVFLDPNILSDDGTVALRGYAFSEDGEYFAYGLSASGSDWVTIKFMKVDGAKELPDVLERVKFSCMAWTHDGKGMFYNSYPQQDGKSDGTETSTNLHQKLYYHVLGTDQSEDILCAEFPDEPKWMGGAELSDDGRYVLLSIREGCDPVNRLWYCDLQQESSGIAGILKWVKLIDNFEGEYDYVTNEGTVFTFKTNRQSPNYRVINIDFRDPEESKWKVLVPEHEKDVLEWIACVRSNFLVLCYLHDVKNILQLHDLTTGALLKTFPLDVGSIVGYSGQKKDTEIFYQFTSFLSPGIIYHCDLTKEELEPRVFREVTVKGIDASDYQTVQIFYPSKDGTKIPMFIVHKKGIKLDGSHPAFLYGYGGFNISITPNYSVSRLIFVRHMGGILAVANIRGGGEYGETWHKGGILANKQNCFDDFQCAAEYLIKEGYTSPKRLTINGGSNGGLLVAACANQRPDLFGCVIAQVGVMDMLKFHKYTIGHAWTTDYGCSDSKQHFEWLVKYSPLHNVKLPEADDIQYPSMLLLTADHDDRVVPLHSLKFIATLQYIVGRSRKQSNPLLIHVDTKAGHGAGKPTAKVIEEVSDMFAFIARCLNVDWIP
In short: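 Recombinant human PREP at 0.6 nM final with Z-Gly-Pro-AMC substrate at 50 μM final in Tris-HCl pH 7.5, NaCl, Triton X-100, glutathione; 15 min rt preincubation then 20 min rt reaction in dark. AMC fluorescence (ex 340/em 460 nm); IC50 from one-site dose-response fit of % inhibition.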

Kinetic solubility = conditions: kinetic from dmso stock
Protocol: Kinetic solubility was measured as described in Comput Aided Mol Des 2015, 29, 795.

[3] = Metabolic stability in rat hepatocytes (rHep); conditions: n = 1 or geometric mean of n = 2-3
[4] = Metabolic stability in human liver microsomes (HLM); conditions: human
Protocol: Metabolic stability in HLM was measured as described in J Comput Aided Mol Des 2015, 29, 795.

[5] = Solubility, kinetic solubility, n = 1 or average of n = 2-3
[6] = HLM CLint, n = 1 or average of n = 2-3

Chain of FAP (Q12884 38-760): as the sequence (Q12884 38-760) above

SMILES | IC50 (FAP) [pM] | IC50 [1] [pM] | hFAP Binding assay k(off) (hFAP (M39-A757)) [s⁻¹] | hFAP Binding assay k(on) (hFAP (M39-A757)) [M⁻¹ s⁻¹] | Kd (hFAP (M39-A757)) [pM] | IC50 [2] [pM] | solubility (Kinetic solubility; [5]) [µM] | rHep CLint [3] [μL/min/1E6] | microsomal CLint [4, 6] [µL/min/mg] | solubility (Kinetic solubility) [µM] | microsomal CLint [4] [µL/min/mg]
N#C[C@@H]1CSCN1C(=O)CNC(=O)c1ccnc2ccc(N3CCCC[C@H](F)C3)cc12 [Example 60, N-(2-((R)-4-Cyanothiazolidin-3-yl)-2-oxoethyl)-6-((S)-3-fluoroazepan-1-yl)quinoline-4-carboxamide] | 220 | 140 | 0.00017 | 1700000 | 99 | 86000 | 160 (≈ 70.6 µg/mL) | 120 | 210 | – | –
N#C[C@@H]1CSCN1C(=O)CNC(=O)c1ccnc2ccc(N3CCOCC34CCC4)cc12 [Example 104, (R)—N-(2-(4-cyanothiazolidin-3-yl)-2-oxoethyl)-6-(8-oxa-5-azaspiro[3.5]nonan-5-yl)quinoline-4-carboxamide] | 210 | 81 | 0.000061 | 3000000 | 20 | 650000 | – | 28 | – | 930 (≈ 420 µg/mL) | 130
N#C[C@@H]1CSCN1C(=O)CNC(=O)c1ccnc2ccc(N3CC4(CC4)C[C@@H]3CF)cc12 [Example 58, N-(2-((R)-4-Cyanothiazolidin-3-yl)-2-oxoethyl)-6-((R)-6-(fluoromethyl)-5-azaspiro[2.4]heptan-5-yl)quinoline-4-carboxamide] | 230 | 76 | 0.091 | 8800000000 | 16 | 180000 | – | 72 | – | 5.8 (≈ 2.63 µg/mL) | 140
C[C@@H]1CCN(c2ccc3nccc(C(=O)NCC(=O)N4CSC[C@H]4C#N)c3c2)C1 [Example 55, N-(2-((R)-4-Cyanothiazolidin-3-yl)-2-oxoethyl)-6-((R)-3-methylpyrrolidin-1-yl)quinoline-4-carboxamide] | 250 | 83 | 0.00025 | 6700000 | 36 | 440000 | 11 (≈ 4.5 µg/mL) | 63 | 55 | – | –
N#C[C@@H]1CSCN1C(=O)CNC(=O)c1ccnc2ccc(-c3ccc(F)cn3)cc12 [Example 125, (R)—N-(2-(4-Cyanothiazolidin-3-yl)-2-oxoethyl)-6-(5-fluoropyridin-2-yl)quinoline-4-carboxamide] | 210 | 46 | 0.00014 | 3000000 | 48 | 120000 | 38 (≈ 16 µg/mL) | 7.4 | 14 | – | –
N#C[C@@H]1CSCN1C(=O)CNC(=O)c1ccnc2ccc(N3CC(Cc4ccc(Cl)cc4)C3)cc12 [Example 187, (R)-6-(3-(4-Chlorobenzyl)azetidin-1-yl)-N-(2-(4-cyanothiazolidin-3-yl)-2-oxoethyl)quinoline-4-carboxamide] | 98 | 72 | 0.00022 | 3100000 | 70 | 38000 | 19 (≈ 9.61 µg/mL) | 140 | 190 | – | –
N#C[C@@H]1CSCN1C(=O)CNC(=O)c1ccnc2ccc(N3CCCC[C@H]3CF)cc12 [Example 45, N-(2-((R)-4-Cyanothiazolidin-3-yl)-2-oxoethyl)-6-((S)-2-(fluoromethyl)-piperidin-1-yl)quinoline-4-carboxamide] | 200 | 140 | 0.00018 | 5400000 | 48 | 190000 | 340 (≈ 150 µg/mL) | 160 | 260 | – | –
Cc1ccc(C2CN(c3ccc4nccc(C(=O)NCC(=O)N5CSC[C@H]5C#N)c4c3)C2)cc1 [Example 183, (R)—N-(2-(4-Cyanothiazolidin-3-yl)-2-oxoethyl)-6-(3-(p-tolyl)azetidin-1-yl)quinoline-4-carboxamide] | 330 | 190 | – | – | 86 | 140000 | 19 (≈ 8.96 µg/mL) | 19 | 49 | – | –
N#C[C@@H]1CSCN1C(=O)CNC(=O)c1ccnc2ccc(N3C[C@@H]4[C@H](C3)[C@H]4C(F)(F)F)cc12 [Example 208, N-(2-((R)-4-Cyanothiazolidin-3-yl)-2-oxoethyl)-6-((1R,5S,6R)-6-(trifluoromethyl)-3-azabicyclo[3.1.0]hexan-3-yl)quinoline-4-carboxamide] | 220 | 110 | 0.00026 | 5600000 | 46 | 210000 | 1.6 (≈ 0.761 µg/mL) | 12 | 72 | – | –
C[C@@H]1COC[C@@H](C)N1c1ccc2nccc(C(=O)NCC(=O)N3CSC[C@H]3C#N)c2c1 [Example 105, N-(2-((R)-4-Cyanothiazolidin-3-yl)-2-oxoethyl)-6-((3R,5R)-3,5-dimethyl-morpholino)quinoline-4-carboxamide] | 370 | 88 | 0.000068 | 890000 | 82 | 590000 | > 1000 | 18 | 180 | – | –
C[C@H]1CCN(c2ccc3nccc(C(=O)NCC(=O)N4CSC[C@H]4C#N)c3c2)CCO1 [Example 62, N-(2-((R)-4-Cyanothiazolidin-3-yl)-2-oxoethyl)-6-((S)-7-methyl-1,4-oxazepan-4-yl)quinoline-4-carboxamide] | 250 | 58 | 0.000085 | 710000 | 120 | 280000 | 640 (≈ 281 µg/mL) | 46 | 31 | – | –
N#C[C@@H]1CSCN1C(=O)CNC(=O)c1ccnc2ccc(N3CC4CCCC4C3)cc12 (stereo partly drawn) [Example 53, N-(2-((R)-4-Cyanothiazolidin-3-yl)-2-oxoethyl)-6-(hexahydrocyclopenta[c]pyrrol-2(1H)-yl)quinoline-4-carboxamide] | 270 | 180 | 0.000050 | 680000 | 74 | 170000 | 2.6 (≈ 1.13 µg/mL) | 71 | 120 | – | –
N#C[C@@H]1CSCN1C(=O)CNC(=O)c1ccnc2ccc(N3CCOCC3)c(Cl)c12 [Example 101, (R)-5-Chloro-N-(2-(4-cyanothiazolidin-3-yl)-2-oxoethyl)-6-morpholino-quinoline-4-carboxamide] | 380 | 350 | 0.000025 | 740000 | 34 | 380000 | > 1000 | 2.3 | 8.6 | – | –
N#C[C@@H]1CSCN1C(=O)CNC(=O)c1ccnc2ccc(N3CCCC(F)(F)C3)cc12 [Example 36, (R)—N-(2-(4-Cyanothiazolidin-3-yl)-2-oxoethyl)-6-(3,3-difluoropiperidin-1-yl)quinoline-4-carboxamide] | 240 | 84 | 0.000090 | 3000000 | 53 | 400000 | < 98 | 19 | 48 | – | –
C[C@@H]1CCCN1c1ccc2nccc(C(=O)NCC(=O)N3CSC[C@H]3C#N)c2c1 [Example 211, N-(2-((R)-4-cyanothiazolidin-3-yl)-2-oxoethyl)-6-((R)-2-methylpyrrolidin-1-yl)quinoline-4-carboxamide] | 200 | 100 | 0.0002 | 5900000 | 49 | 110000 | 110 (≈ 45 µg/mL) | 190 | 200 | – | –
